This passage reports IC50 results from patent US20240279237A1, “FUSED BICYCLIC HETEROARYL COMPOUNDS USEFUL AS NLRP3 INHIBITORS” (Hoffmann-La Roche Inc., priority 2021, published 2024).

Structures are written as SMILES. Counter-ions that a name gives are not always drawn.

The target of the assay is T1, NLRP3 (Homo sapiens, UniProt Q96P20).
T1 construct: Seed THP-1 cells (25,000 cells/well) containing 1.0 μg/ml LPS in 40 μl of RPMI medium; host or cells: THP-1 cells
As to the kind of experiment: THP-1 Cells Pyroptosis Assay. The format is cell-based. Particulars: THP-1 cells with 1.0 μg/ml LPS; compound 3 hours; nigericin 5 μM 1 hr; resazurin readout. In outline: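 THP-1 cells in serum-free RPMI primed with LPS (1 μg/ml FAC), incubated with compound 3 h at 37 °C, then nigericin (5 μM FAC) for 1 h. Supernatant removed after spin; viability read by resazurin (100 μM FAC) reduction after a further 1-2 h at 37 °C.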

T1 sequence (Q96P20 whole entry): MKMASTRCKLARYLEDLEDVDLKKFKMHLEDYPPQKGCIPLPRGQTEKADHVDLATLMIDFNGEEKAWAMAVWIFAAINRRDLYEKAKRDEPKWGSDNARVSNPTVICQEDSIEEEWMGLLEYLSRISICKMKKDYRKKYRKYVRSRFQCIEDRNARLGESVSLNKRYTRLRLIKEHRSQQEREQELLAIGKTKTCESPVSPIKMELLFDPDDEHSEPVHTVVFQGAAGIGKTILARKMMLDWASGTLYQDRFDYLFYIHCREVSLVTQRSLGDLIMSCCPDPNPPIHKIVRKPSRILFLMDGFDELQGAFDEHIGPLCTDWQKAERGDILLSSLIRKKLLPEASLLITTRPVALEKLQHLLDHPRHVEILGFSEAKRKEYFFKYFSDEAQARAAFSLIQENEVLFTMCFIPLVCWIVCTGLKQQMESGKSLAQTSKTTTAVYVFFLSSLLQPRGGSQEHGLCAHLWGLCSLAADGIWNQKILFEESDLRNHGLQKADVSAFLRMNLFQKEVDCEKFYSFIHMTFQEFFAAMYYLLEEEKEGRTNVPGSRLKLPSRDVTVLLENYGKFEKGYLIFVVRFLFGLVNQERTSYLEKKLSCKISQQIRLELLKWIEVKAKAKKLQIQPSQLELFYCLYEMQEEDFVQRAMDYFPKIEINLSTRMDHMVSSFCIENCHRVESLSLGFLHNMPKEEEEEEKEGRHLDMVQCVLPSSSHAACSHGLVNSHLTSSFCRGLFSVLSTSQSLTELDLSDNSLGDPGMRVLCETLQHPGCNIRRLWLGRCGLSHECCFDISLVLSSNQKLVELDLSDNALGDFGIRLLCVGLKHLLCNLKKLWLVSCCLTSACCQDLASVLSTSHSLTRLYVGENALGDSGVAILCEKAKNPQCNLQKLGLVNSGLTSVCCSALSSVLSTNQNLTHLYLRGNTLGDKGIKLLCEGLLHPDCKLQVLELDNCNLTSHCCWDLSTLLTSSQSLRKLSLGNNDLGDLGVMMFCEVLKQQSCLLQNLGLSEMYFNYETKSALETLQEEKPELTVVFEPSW

As a reminder, the IC50 is the point on the concentration scale where inhibition reaches its midpoint. Low readings indicate greater potency, high ones weaker potency. The compound `Cc1cc(C#N)cc(O)c1-c1ccc2oc(N3CCC4CCN(C)CC43)nc2n1` (single isomer, unassigned) [Example 27A, 4-[2-[(3aS,7aR or 3aR,7aS)-6-methyl-3,3a,4,5,7,7a-hexahydro-2H-pyrrolo[2,3-c]pyridin-1-yl]oxazolo[4,5-b]pyridin-5-yl]-3-hydroxy-5-methyl-benzonitrile] displayed an IC50 of 578 nM.
`CCN1CCC(Nc2nc3nc(-c4c(C)cc(C(F)(F)F)cc4O)ccc3o2)C1` (centres unmarked) [Example 131, 2-[2-[(1-Ethylpyrrolidin-3-yl)amino]oxazolo[4,5-b]pyridin-5-yl]-3-methyl-5-(trifluoromethyl)phenol] registered an IC50 of 9.6 nM.
`Cc1cc(Cl)cc(O)c1-c1ccc2oc(C3CCC(=O)NC3)nc2n1` (centres unmarked) [Example 73, 5-[5-(4-Chloro-2-hydroxy-6-methyl-phenyl)oxazolo[4,5-b]pyridin-2-yl]piperidin-2-one] returned an IC50 of 30 nM.
For `Cc1cc(C(F)(F)F)cc(O)c1-c1ccc2[nH]c(C3CCCN3)nc2n1` (racemic) [Example 17, (rac)-3-Methyl-2-(2-(pyrrolidin-2-yl)-1H-imidazo[4,5-b]pyridin-5-yl)-5-(trifluoro-methyl)phenol], half-maximal inhibition (IC50) was put at 183 nM.
Compound `Cc1cc(Cl)cc(O)c1-c1ccc2oc(N[C@@H]3CCCN(C4COC4)C3)nc2n1` [Example 63, 5-Chloro-3-methyl-2-[2-[[(3R)-1-(oxetan-3-yl)-3-piperidyl]amino]oxazolo[4,5-b]pyridin-5-yl]phenol] came in with an IC50 of 57.5 nM.
Compound `Cc1cc(Cl)cc(O)c1-c1ccc2oc(NCc3c[nH]cn3)nc2n1` [Example 67, 5-Chloro-2-[2-(1H-imidazol-5-ylmethylamino)oxazolo[4,5-b]pyridin-5-yl]-3-methyl-phenol; formic acid] displayed an IC50 of 290 nM.
For the compound `CCN1CCCC[C@@H](Nc2nc3nc(-c4c(C)cc(C(F)(F)F)cc4O)ccc3o2)C1` [Example 91, 2-[2-[[(3R)-1-Ethylazepan-3-yl]amino]oxazolo[4,5-b]pyridin-5-yl]-3-methyl-5-(trifluoromethyl)phenol], the IC50 came out at 4.9 nM.
In turn, `Cc1cc(F)cc(O)c1-c1ccc2oc(N[C@@H]3CCCN(C)C3)nc2n1` [Example 50, 5-Fluoro-3-methyl-2-[2-[[(3R)-1-methyl-3-piperidyl]amino]oxazolo[4,5-b]pyridin-5-yl]phenol] showed an IC50 of 1.7 nM.
Compound `Cc1cc(C(F)(F)F)cc(O)c1-c1ccc2oc(N3CCO[C@H]4CNC[C@@H]43)nc2n1` (racemic) [Example 64, 3-Methyl-2-[2-[rac-(4aS,7aS)-3,4a,5,6,7,7a-hexahydro-2H-pyrrolo[3,4-b][1,4]oxazin-4-yl]oxazolo[4,5-b]pyridin-5-yl]-5-(trifluoromethyl)phenol;2,2,2-trifluoroacetic acid] registered an IC50 of 4.9 nM.
Then `CCN1CCC(O)C(Nc2nc3nc(-c4c(C)cc(Cl)cc4O)ccc3o2)C1` (centres unmarked) [Example 124, 3-[[5-(4-Chloro-2-hydroxy-6-methyl-phenyl)oxazolo[4,5-b]pyridin-2-yl]amino]-1-ethyl-piperidin-4-ol], with 53.8 nM.
For the compound `Cc1cc(Cl)cc(O)c1-c1ccc2oc(CC3CN(C(C)C)CCO3)nc2n1` (centres unmarked) [Example 88, 5-Chloro-2-[2-[(4-isopropylmorpholin-2-yl)methyl]oxazolo[4,5-b]pyridin-5-yl]-3-methyl-phenol;formic acid], the IC50 was found to be 6 nM.
`CCN1C[C@@H](O)C[C@@H](Nc2nc3nc(-c4c(C)cc(Cl)cc4O)ccc3o2)C1` [Example 134, (3S,5R)-5-[[5-(4-Chloro-2-hydroxy-6-methyl-phenyl)oxazolo[4,5-b]pyridin-2-yl]amino]-1-ethyl-piperidin-3-ol] had an IC50 of 1.9 nM.
Compound `Cc1cc(C(F)(F)F)cc(O)c1-c1ccc2oc(N3CCO[C@@H]4CNC[C@H]43)nc2n1` [Example 64A, 2-[2-[(4aR,7aR)-3,4a,5,6,7,7a-Hexahydro-2H-pyrrolo[3,4-b][1,4]oxazin-4-yl]oxazolo[4,5-b]pyridin-5-yl]-3-methyl-5-(trifluoromethyl)phenol] yielded an IC50 of 1.7 nM.
Compound `CCN1CCCC(c2nc3nc(-c4c(C)cc(C(F)(F)F)cc4O)ccc3o2)C1` (centres unmarked) [Example 138, 2-[2-(1-Ethyl-3-piperidyl)oxazolo[4,5-b]pyridin-5-yl]-3-methyl-5-(trifluoromethyl)phenol] showed an IC50 of 234 nM.
Turning to `CCN1CC(CNc2nc3nc(-c4c(C)cc(Cl)cc4O)ccc3o2)C1` [Example 59, 5-Chloro-2-[2-[(1-ethylazetidin-3-yl)methylamino]oxazolo[4,5-b]pyridin-5-yl]-3-methyl-phenol], the midpoint of inhibition, the IC50, lay at 30.1 nM.
For the compound `CCN1CCC[C@@H](Nc2nc3nc(-c4c(C)cc(Cl)c(F)c4O)ccc3o2)C1` [Example 21, 5-Chloro-2-[2-[[(3R)-1-ethyl-3-piperidyl]amino]oxazolo[4,5-b]pyridin-5-yl]-6-fluoro-3-methyl-phenol;2,2,2-trifluoroacetic acid salt], inhibition was half-maximal at 0.6 nM (IC50).
In the case of `CCN1CCC[C@@H](Nc2nc3nc(-c4c(C)cc(OC(F)(F)F)cc4O)ccc3o2)C1` [Example 137, 2-[2-[[(3R)-1-Ethyl-3-piperidyl]amino]oxazolo[4,5-b]pyridin-5-yl]-3-methyl-5-(trifluoromethoxy)phenol;2,2,2-trifluoroacetic acid], the IC50 is 4.8 nM.
On to `Cc1cc(C(F)(F)F)cc(O)c1-c1ccc2oc(N[C@@H]3CCCN(CCO)C3)nc2n1` [Example 52, 2-[2-[[(3R)-1-(2-Hydroxyethyl)-3-piperidyl]amino]oxazolo[4,5-b]pyridin-5-yl]-3-methyl-5-(trifluoromethyl)phenol], for which the IC50 was 2.3 nM.
Then `Cc1cc(C#N)cc(O)c1-c1ccc2oc(N[C@H]3CCCN4CCC[C@@H]34)nc2n1` (single isomer, unassigned) [Example 139A, 4-[2-[[(8S,8aS)-1,2,3,5,6,7,8,8a-Octahydroindolizin-8-yl]amino]oxazolo[4,5-b]pyridin-5-yl]-3-hydroxy-5-methyl-benzonitrile or 4-[2-[[(8R,8aR)-1,2,3,5,6,7,8,8a-octahydroindolizin-8-yl]amino]oxazolo[4,5-b]pyridin-5-yl]-3-hydroxy-5-methyl-benzonitrile], with 3.7 nM.
Compound `Cc1cc(C(F)(F)F)cc(O)c1-c1ccc2oc(N3CCCC(O)C3)nc2n1` (single isomer, unassigned) [Example 3A, (3R or 3S)-1-[5-[2-hydroxy-6-methyl-4-(trifluoromethyl)phenyl]oxazolo[4,5-b]pyridin-2-yl]piperidin-3-ol] displayed an IC50 of 75 nM.
As to `CCN1CCC[C@@H](Nc2nc3nc(-c4c(O)cc(C(F)(F)F)cc4OC)ccc3o2)C1` [Example 31, 2-[2-[[(3R)-1-Ethyl-3-piperidyl]amino]oxazolo[4,5-b]pyridin-5-yl]-3-methoxy-5-(trifluoromethyl)phenol;2,2,2-trifluoroacetic acid salt], the IC50 came to 4 nM.
`Cc1cc(Cl)cc(O)c1-c1ccc2oc([C@H]3CCC(=O)NC3)nc2n1` (single isomer, unassigned) [Example 73A, (5S)-5-[5-(4-Chloro-2-hydroxy-6-methyl-phenyl)oxazolo[4,5-b]pyridin-2-yl]piperidin-2-one or (5R)-5-[5-(4-Chloro-2-hydroxy-6-methyl-phenyl)oxazolo[4,5-b]pyridin-2-yl]piperidin-2-one] gave a concentration for half-maximal inhibition (IC50) of 18.7 nM.
The same measure for `Cc1cc(Cl)cc(O)c1-c1ccc2oc(N[C@@H]3CCC[C@H]3N(C)C)nc2n1` [Example 112, 5-Chloro-2-[2-[[(1R,2R)-2-(dimethylamino)cyclopentyl]amino]oxazolo[4,5-b]pyridin-5-yl]-3-methyl-phenol]: 6.6 nM; for `Cc1cc(Cl)cc(O)c1-c1ccc2oc(NC3CCC4CCCN4C3)nc2n1` (centres unmarked) [Example 65, 2-[2-(1,2,3,5,6,7,8,8a-Octahydroindolizin-6-ylamino)oxazolo[4,5-b]pyridin-5-yl]-5-chloro-3-methyl-phenol]: 20.3 nM.
The same measure for `Cc1cc(C(F)(F)F)cc(O)c1-c1ccc2oc(N3CC[C@@H]4CCN(C)C[C@@H]43)nc2n1` (single isomer, unassigned) [Example 37A, 2-[2-[(3aS,7aR)-6-Methyl-3,3a,4,5,7,7a-hexahydro-2H-pyrrolo[2,3-c]pyridin-1-yl]oxazolo[4,5-b]pyridin-5-yl]-3-methyl-5-(trifluoromethyl)phenol or 2-[2-[(3aR,7aS)-6-methyl-3,3a,4,5,7,7a-hexahydro-2H-pyrrolo[2,3-c]pyridin-1-yl]oxazolo[4,5-b]pyridin-5-yl]-3-methyl-5-(trifluoromethyl)phenol]: 216 nM.
On to `CN1CCC[C@@H](Nc2nc3nc(-c4c(O)cc(F)cc4C(F)(F)F)ccc3o2)C1` [Example 126, 5-Fluoro-2-[2-[[(3R)-1-methyl-3-piperidyl]amino]oxazolo[4,5-b]pyridin-5-yl]-3-(trifluoromethyl)phenol;2,2,2-trifluoroacetic acid], for which the IC50 came out at 3.9 nM.
